Consider 7 compounds from paper PMC12295306, “Gut Microbial Postbiotics as Potential Therapeutics for Lymphoma: Proteomics Insights of the Synergistic Effects of Nisin and Urolithin B Against Human Lymphoma Cells” (International Journal of Molecular Sciences, 2025).

Each structure is given as a SMILES string.

The subject of experiment [1] is HKB-11 human lymphoma cells. The experiment in a line: Alamar Blue antiproliferative assay, HKB-11. The experiment is classed as cell-based. The settings on record: HKB-11, 72 h, single postbiotics, GraphPad Prism nonlinear regression; for IC50: read-out: IC50 (concentration required to inhibit 50% of cell growth). On the procedure: The cell viability of the HKB-11, Hs 313.T, and HS-5 cells after treatment with different concentrations of the seven different postbiotics, including SCFA salts (magnesium acetate, sodium propionate, and sodium butyrate), UA and UB, purine nucleoside (inosine), and bacteriocin (N), was determined using the Alamar Blue assay as per the method described earlier. Briefly, 100 μL of cells was cultured in 96-well plates at a 3 × 10^5 cells/mL seeding density. After 24 h, the cells were treated with 16,000 µM of each postbiotic except for the urolithins, which were applied at 500 µM using a 1:2 serial dilution across a 10-point dose–response curve, followed by a 72 h incubation. A positive control using doxorubicin was prepared at a concentration of 4 μM, and an untreated control with 0.1% DMSO was added to every plate. At the end of the incubation period, the culture media were removed, and 100 μL of a 0.1 mg/mL Alamar Blue solution (resazurin, prepared as a stock solution at 1 mg/mL in freshly made PBS, followed by a 1:10 dilution with serum-free media) was added to each well. The fluorescence levels were assessed using a microplate spectrophotometer (BMG CLARIOstar, Mornington, VIC, Australia) with an excitation wavelength of 555 nm and emission measurement at 595 nm. The compounds were tested in triplicate, with the untreated control taken as 100% cell viability.
Data were collected and managed using MS Office Excel and GraphPad Prism for statistical analyses and visualisation. Data collection and analyses were carried out in triplicate, and the outcomes were presented as the mean ± standard deviation. Statistical significance between the mean values was determined at p ≤ 0.05 employing a two-way ANOVA. Tukey and Dunnett’s tests were utilised within GraphPad Prism software to perform nonlinear regression and multiple comparisons. Furthermore, GraphPad Prism software computed the IC50 value (representing the drug concentration required to achieve a 50% cell growth inhibition). The experimental groups in the proteomics study were compared statistically using unpaired t-tests, assuming equal variances. Candidate proteins were selected based on an absolute log2 fold change ≥ 0.58 and a Q-value ≤ 0.05. Enrichment analysis was subsequently conducted using Ingenuity Pathway Analysis (IPA), applying a significance threshold of adjusted Q ≤ 0.05 to identify functionally enriched pathways, focusing on those with an absolute z-score of ≥1.

For experiment [2], the system named is HKB-11 lymphoma cells. The experiment in a line: ROS production, H2DCFDA assay. The settings on record: 4 h. The experiment is classed as cell-based, human. On the procedure: Briefly, HKB-11 lymphoma cells (2.5 × 10^5 cells/mL) were cultured in a 96-well plate, allowed to adhere overnight, and treated with 20 μM H2DCFDA for 45 min to assess ROS levels. The dye solution was removed, and cells were washed with 1× buffer. Next, the cells were treated with N (8000 μM), N (4000 μM), UB (500 μM), UB (250 μM), N/UB (3500 μM), N/UB (1750 μM), N/UB (5750 μM), N/UB (2875 μM), Dox (4 μM), and tert-butyl hydroperoxide (TBHP) (150 μM) and then incubated at 37 °C for 4 h. Finally, the plate was immediately read at Ex/Em = 485/535 nm using a microplate spectrophotometer (BMG CLARIOstar, VIC, Australia). The fold change in ROS production was determined relative to the untreated control (cells treated with the supplement buffer according to the manufacturer’s protocol).

Experiment [3] relates to HKB-11 lymphoma cells. The experiment in a line: Flow cytometry apoptosis profile, Annexin V-CF Blue / 7-AAD. The format is cell-based, human. The settings on record: HKB-11, 4 µM, 24 h; p ≤ 0.0001. On the procedure: The HKB-11 cells were cultured in T75 cell culture flasks with an initial density of 1 × 10^6 cells per 10 mL at 37 °C in the presence of 5% CO2 for 24 h. The following day, the cell culture media was removed from each flask and replaced with fresh FBS-containing media. […] An FBS-containing medium was used as the untreated control. The flasks were then incubated at 37 °C with 5% CO2 for 24 h. Then, the cell culture media from each flask were collected. Subsequently, trypsin (0.25% w/v) was applied to the flasks for 4 min at 37 °C. The trypsin reaction was neutralised with an equal volume of 10% FBS serum-containing media, and the cells were combined with the previously collected media. The cell pellets were obtained by centrifuging at 500× g for 5 min at room temperature (RT). This procedure was repeated by suspending the cell pellets in 1 mL of PBS each time. The collected cell pellets from each treatment were immediately suspended in 500 μL of 1× binding buffer and gently mixed by pipetting. Annexin V-CF Blue (5 μL) and 7-AAD (5 μL) staining solutions were added to 100 μL of the cell suspension. The stained cells were incubated for 15 min in the dark at RT, after which 400 μL of a 1× assay buffer was added to each cell suspension. Subsequently, the cells were examined using a flow cytometer (Novocyte 3000, ACEA Biosciences Inc., San Diego, CA, USA), and data analysis and processing were performed using NovoExpress software (version 1.5.0, ACEA Biosciences Inc., CA, USA). In the initial step, the cells were gated on forward and side scatter modes to exclude cell aggregates and debris near the origin. The cells were then gated on dot plots, where Annexin V-CF in Pacific Blue was plotted against 7-AAD fluorescence in PerCP. Quadrants were positioned relative to the untreated control, indicating live cells ([…] and −7-AAD) appearing in the lower-left quadrant, early apoptotic cells (+Annexin V and −7-AAD) in the lower-right quadrant, late apoptotic cells (+Annexin V and +7-AAD) in the upper-right quadrant, and necrotic cells (−Annexin V and +7-AAD) in the upper-left quadrant. For statistical analyses and visualisation, the percentage data of cells in each quadrant after different treatments (n = 3) were exported to GraphPad Prism software (version 9.0, San Diego, CA, USA).

For the compound `CCC(=O)[O-].[Na+]` [Sodium Propionate, sodium propionate], the IC50 in experiment [1] was 14.6 mM.
Take `CC(C)(C)OO` [TBHP, tert-butyl hydroperoxide, reference compound]: the “ROS production (positive control)” value in the experiment on HKB-11 lymphoma cells [2] (HKB-11, 150 μM) is “induced high ROS production”.
For the compound `O=c1oc2cc(O)ccc2c2ccc(O)cc12` [UA, Urolithin A], the IC50 in experiment [1] was determined as 0.384 mM.
`CCCC(=O)[O-].[Na+]` [Sodium Butyrate, sodium butyrate]: the IC50 in experiment [1] is 2.02 mM.
Take `COc1cccc2c1C(=O)c1c(O)c3c(c(O)c1C2=O)C[C@@](O)(C(=O)CO)C[C@@H]3O[C@H]1C[C@H](N)[C@H](O)[C@H](C)O1` [Dox, doxorubicin, reference compound]: the “ROS production (positive control)” value in the experiment with HKB-11 lymphoma cells [2] (HKB-11, 4 μM) is recorded as “induced high ROS production”. Also, in the experiment with HKB-11 lymphoma cells [3], the “Apoptosis induction (positive control)” value is recorded as “significantly induced apoptosis”; the “Necrotic cell death compared to the untreated control and other treatment groups” value is given as “markedly higher proportion of necrotic cell death”.
On to `CC(=O)[O-].CC(=O)[O-].[Mg+2]` [Magnesium Acetate, magnesium acetate], for which the “IC50 (concentration required to inhibit 50% of cell growth)” value in experiment [1] was “could not be calculated”.
In the case of `O=c1[nH]cnc2c1ncn2[C@@H]1O[C@H](CO)[C@@H](O)[C@H]1O` [Inosine, inosine], in experiment [1], the “IC50 (concentration required to inhibit 50% of cell growth)” value was “could not be calculated”.
